Experimental data reported in the NIST ThermoML archive (doi:10.1016/j.fluid.2012.08.020).
Where “and” joins values, the source holds several entries; their conditions need not be identical. Identical values can stand only once.

Experiments:
[1] = molar enthalpy of vaporization or sublimation; conditions: Liquid, Calvet Calorimetry

CC(C)(C)c1cccc(-c2ccccc2)c1 [3-(1,1-dimethylethyl)-1,1'-biphenyl]
Liquid
Conditions	vapor or sublimation pressure [kPa]
323 K, Transpiration method	0.00191
325.9 K, Transpiration method	0.00244
328.5 K, Transpiration method	0.00298
331 K, Transpiration method	0.00368
333.4 K, Transpiration method	0.00447
335.3 K, Transpiration method	0.00514
338.2 K, Transpiration method	0.00653
340.8 K, Transpiration method	0.00801
343.3 K, Transpiration method	0.00917
345.5 K, Transpiration method	0.0113
348.1 K, Transpiration method	0.01363
350.7 K, Transpiration method	0.01622
353.4 K, Transpiration method	0.01957
356 K, Transpiration method	0.02333
358.5 K, Transpiration method	0.0282
361.3 K, Transpiration method	0.03303
440.79 K, Ebulliometric method (Recirculating still)	2.117
459.53 K, Ebulliometric method (Recirculating still)	4.346
473.75 K, Ebulliometric method (Recirculating still)	7.152
486.07 K, Ebulliometric method (Recirculating still)	10.66
493.76 K, Ebulliometric method (Recirculating still)	13.5
501.46 K, Ebulliometric method (Recirculating still)	16.96
509.1 K, Ebulliometric method (Recirculating still)	21.07
518.78 K, Ebulliometric method (Recirculating still)	27.41
527.38 K, Ebulliometric method (Recirculating still)	34.27
537.26 K, Ebulliometric method (Recirculating still)	43.86
547.55 K, Ebulliometric method (Recirculating still)	56.03
558.29 K, Ebulliometric method (Recirculating still)	71.52
570.25 K, Ebulliometric method (Recirculating still)	92.61
582 K, Ebulliometric method (Recirculating still)	118.1

Conditions	Normal boiling temperature [°C]
Liquid, Ebulliometric method (Recirculating still)	301.34

Cc1ccc(-c2ccccc2)cc1 [4-methylbiphenyl]
Conditions	Normal boiling temperature [°C]
Liquid, Ebulliometric method (Recirculating still)	274.4

Cc1ccc(-c2ccc(C)cc2)cc1 [4,4'-dimethylbiphenyl]
Crystal, Transpiration method
Conditions	vapor or sublimation pressure [kPa]
334.2 K	0.00389
339.3 K	0.00638
343.2 K	0.00955
349.2 K	0.01668
353.7 K	0.02516
354.6 K	0.02591
358.8 K	0.03834
363.7 K	0.05681
368.7 K	0.08722
374.5 K	0.1474
379.5 K	0.2146

CC(C)(C)c1ccc(-c2ccccc2)cc1 [4-(1,1-dimethylethyl)-1,1'-biphenyl]
Liquid, Ebulliometric method (Recirculating still)
Conditions	vapor or sublimation pressure [kPa]
448.41 K	2.117
467.65 K	4.346
482.23 K	7.152
494.83 K	10.66
502.69 K	13.5
510.59 K	16.96
518.4 K	21.07
528.31 K	27.41
537.1 K	34.27
547.22 K	43.86
557.74 K	56.03
568.72 K	71.52
580.98 K	92.61
593.09 K	118.1

Conditions	Normal boiling temperature [°C]
Liquid, Ebulliometric method (Recirculating still)	312.24

Cc1cccc(-c2ccccc2)c1 [3-methylbiphenyl]
Liquid, Transpiration method
Conditions	vapor or sublimation pressure [kPa]
318.8 K	0.00702
320.4 K	0.00797
323.3 K	0.01012
325.5 K	0.01178
328.1 K	0.01408
330.3 K	0.01692
333.1 K	0.02024
336.1 K	0.02586
338.5 K	0.03025
340.4 K	0.03425
343.2 K	0.04154
346.4 K	0.05071
348.5 K	0.05569
350.8 K	0.06543
353.7 K	0.07738
356.2 K	0.09688
358.3 K	0.1068
360.8 K	0.1231
363.6 K	0.1459
365.8 K	0.1642

CC(C)c1cccc(-c2ccccc2)c1 [3-(1-Methylethyl)-1,1'-biphenyl]
Liquid
Conditions	vapor or sublimation pressure
302.8 K, Transpiration method	0.00045 kPa
303.3 K, Transpiration method	0.00044 kPa
305.9 K, Transpiration method	0.00061 kPa
307.8 K, Transpiration method	0.0007 kPa
309.9 K, Transpiration method	0.0009 kPa
312.9 K, Transpiration method	0.00122 kPa
313.3 K, Transpiration method	0.00116 kPa
315.9 K, Transpiration method	0.00146 kPa
317.9 K, Transpiration method	0.00187 kPa
319.9 K, Transpiration method	0.00217 kPa
322.9 K, Transpiration method	0.00265 kPa and 0.00276 kPa
323.3 K, Transpiration method	0.0025 kPa
325.8 K, Transpiration method	0.00378 kPa
327.8 K, Transpiration method	0.00388 kPa
328 K, Transpiration method	0.00408 kPa
329.8 K, Transpiration method	0.00479 kPa
332.3 K, Transpiration method	0.00644 kPa
332.8 K, Transpiration method	0.0062 kPa
333.3 K, Transpiration method	0.0064 kPa and 0.00674 kPa and 0.0065 kPa
333.4 K, Transpiration method	0.00634 kPa and 0.00708 kPa
335.3 K, Transpiration method	0.0078 kPa
335.8 K, Transpiration method	0.00832 kPa
336.3 K, Transpiration method	0.00811 kPa and 0.0082 kPa
337.3 K, Transpiration method	0.00945 kPa
337.7 K, Transpiration method	0.00887 kPa
338 K, Transpiration method	0.00931 kPa
338.3 K, Transpiration method	0.00975 kPa
340.3 K, Transpiration method	0.01113 kPa
342.3 K, Transpiration method	0.01244 kPa
343.1 K, Transpiration method	0.01478 kPa and 0.01437 kPa
343.3 K, Transpiration method	0.01376 kPa and 0.01441 kPa
345.3 K, Transpiration method	0.01629 kPa and 0.01561 kPa
347.3 K, Transpiration method	0.01952 kPa and 0.01755 kPa
348.3 K, Transpiration method	0.01973 kPa and 0.02029 kPa and 0.02064 kPa
349.3 K, Transpiration method	0.02026 kPa
351.3 K, Transpiration method	0.02423 kPa
353.2 K, Transpiration method	0.02884 kPa
353.3 K, Transpiration method	0.02848 kPa
358.2 K, Transpiration method	0.04134 kPa
434.53 K, Ebulliometric method (Recirculating still)	2.17 kPa
452.99 K, Ebulliometric method (Recirculating still)	4.346 kPa
467.03 K, Ebulliometric method (Recirculating still)	7.152 kPa
479.19 K, Ebulliometric method (Recirculating still)	10.66 kPa
486.79 K, Ebulliometric method (Recirculating still)	13.5 kPa
494.39 K, Ebulliometric method (Recirculating still)	16.96 kPa
501.93 K, Ebulliometric method (Recirculating still)	21.07 kPa
511.48 K, Ebulliometric method (Recirculating still)	27.41 kPa
519.96 K, Ebulliometric method (Recirculating still)	34.27 kPa
529.73 K, Ebulliometric method (Recirculating still)	43.86 kPa
539.88 K, Ebulliometric method (Recirculating still)	56.03 kPa
550.47 K, Ebulliometric method (Recirculating still)	71.52 kPa
562.29 K, Ebulliometric method (Recirculating still)	92.61 kPa
573.95 K, Ebulliometric method (Recirculating still)	118.1 kPa

Conditions	Normal boiling temperature, Ebulliometric method (Recirculating still) [°C]	molar enthalpy, 323.15 K [kcal/mol]	molar enthalpy, 333.15 K [kcal/mol]	molar enthalpy, 343.15 K [kcal/mol]	molar enthalpy, 353.15 K [kcal/mol]	molar enthalpy, 363.15 K [kcal/mol]	molar enthalpy, 373.15 K [kcal/mol]
Liquid	293.39	–	–	–	–	–	–
[1]	–	17.8	17.5	17.3	17.1	16.8	16.6

CC(C)(C)c1ccc(-c2ccc(C(C)(C)C)cc2)cc1 [4,4'-bis(1,1-dimethylethyl)-1,1'-biphenyl]
Crystal, Transpiration method
Conditions	vapor or sublimation pressure [kPa]
335.5 K	7.9e-05
338.5 K	0.00011
341.5 K	0.000146
343.5 K	0.000176
348.2 K	0.000291
351.5 K	0.000425
353.9 K	0.000537
358.5 K	0.000887
363.7 K	0.001398
365.5 K	0.001697
368.6 K	0.002328
370.5 K	0.002679
373.5 K	0.003653
373.7 K	0.003396
375.7 K	0.004092
378.2 K	0.005541
380.4 K	0.006527
382.5 K	0.007664
384.7 K	0.009379

Cc1ccccc1-c1ccccc1 [2-methylbiphenyl]
Liquid, Transpiration method
Conditions	vapor or sublimation pressure [kPa]
301 K	0.00376
303.5 K	0.00477
305.9 K	0.0056
308.4 K	0.00692
310.9 K	0.00851
313.4 K	0.01043
315.9 K	0.0128
318.4 K	0.01527
320.8 K	0.0183
323.3 K	0.02232
325.8 K	0.02641
328.3 K	0.0314
330.7 K	0.03763
333.2 K	0.04446
335.7 K	0.05183
338.1 K	0.06106
340.6 K	0.07203
343.1 K	0.08401
345.6 K	0.09811
348.1 K	0.1141
